Key:
[1] = system: P. Gingivalis proteins extracted from cell surface and precipitated from cell culture media (gelatin-cleaving / collagenolytic activity); assay: Gelatin zymography; format: biochemical, P. Gingivalis 381; settings: inhibitor 5 mM in development buffer, 37° C. overnight; both protein preparations (FIGS. 3 and 4)
Description: Since P. Gingivalis proteases cleave gelatin effectively, the gelatin-cleaving activity of the extracted proteins was checked by zymography, as described by Heussen and Dowdle using 10% Zymogen (Gelatin) Gel 1.0 mm×10 well (Invitrogen Corporation). [Heussen, C. & Dowdle, E. B., “Electrophoretic Analysis of Plasminogen Activators in Polyacrylamide Gels Containing Sodium Dodecyl Sulfate and Copolymerized Substrates”, 102 Anal. Biochem. 196-202 (1980).]
The extracted proteins, with the reducing sample buffer containing 5% mercaptoethanol, was electrophoresed. After electrophoresis, the gel was washed in 50 mM HEPES, pH 7.0, containing 2% Triton X-100 for 30 minutes, and rinsed twice with the same buffer without Triton X-100. The gel was then cut into 3 parts before transferring to a development buffer containing 50 mM HEPES, 5% 2-mercaptoethanol, buffered at pH 7.0. One part was incubated with developing buffer whereas the other two parts were incubated in the presence of inhibitor with varying concentrations of 5 mM and 10 mM. The gel was incubated at 37° C. overnight on a rocker. The incubated gel was then fixed with 50% methanol and 12% acetic acid for 30 minutes, and stained with 0.1% Coomassie blue in 50% methanol and 12% acetic acid to visualize lytic bands.

[2] = system: cell surface-extracted proteases from P. Gingivalis; assay: BAPNA hydrolysis by cell surface-extracted proteins; format: biochemical, P. Gingivalis 381; settings: for inhibitory effect on cell surface-extracts (BAPNA hydrolysis): FIG. 2, inhibitor 0.4-2.4 mM tested, 2.4 mM stated for gadolinium nitrate, 5% 2-mercaptoethanol, 37° C., 1 hour; for OD at A405 (p-nitroaniline released): inhibitor concentration 2.4 mM
Method: (§1) All steps in the isolation of P. Gingivalis proteins were carried out at 4° C. […] The cells and culture media were separated by centrifugation at 10,000×g for 10 minutes in a Sorvall centrifuge.
P. Gingivalis cells collected after centrifugation were washed three times with 50 millimolar (“mM”) HEPES buffer, pH 7.0. The washed cells were stirred with 1% Triton X-100 (Fisher Scientific) dissolved in HEPES (Fisher Scientific) at 4° C. for 15 minutes to solubilize cell surface proteins. The cells were centrifuged at 10,000×g in a Sorvall centrifuge for 10 minutes, and the supernatant was collected. [Sojar, H. T., Lee, J. Y., Bedi, G. S. et al., “Purification and Characterization of a Protease from Porphyromonas Gingivalis Capable of Degrading Salt-Solubilized Collagen”, 61 Infect. Immun. […] The amount of protein was estimated using a Spectrophotometer ND-1000 by absorbance at 280 nm.
(§2) Activity of cell surface-extracted and culture-precipitated proteases was assayed by using the synthetic chromogenic substrate benzoyl-L-Arg-p-nitroanilide (BAPNA). [Erlanger, B. F., Kokowsky, N. & Cohen, W., “The Preparation and Properties of Two New Chromogenic Substrates of Trypsin”, 95 Arch. […] Colorimetric values measured as absorbance were obtained using Spectronic 2000 Methodology for culture media-precipitated proteins.
The reaction mixture consisted of 100 μl of 100 mM substrate in 50 mM HEPES buffer, pH 7, 50 μl of an approximately 1 mg/ml of proteins was used to test chromogenic activity of the substrate. With 5% of 2-mercaptoethanol as reducing agent, the volume was made to 500 μl. Various volumes of the inhibitor 0.4 mM; 0.8 mM; 1.2 mM; 1.6 mM; 2.0 mM; 2.4 mM were used.
(§3) After incubation at 37° C. for 1 hour, 100 μl of 5 N acetic acid was added to stop the reaction in both experimental samples. The total volume was made to 1 ml by addition of water. The p-nitroaniline released was determined by measuring A405.

[3] = system: cell culture media-precipitated proteases from P. Gingivalis; assay: BAPNA hydrolysis by culture media-precipitated proteins; format: biochemical, P. Gingivalis 381; settings: FIG. 1; inhibitor 2-10 mM tested, 10 mM stated for gadolinium nitrate; 5% 2-mercaptoethanol, 37° C., 1 hour
Method: as §1
To the cell-separated culture supernatant, ammonium sulfate was added to achieve 80% saturation in a volume of 400 ml. After 4 hours, the precipitate was collected by centrifugation at 11,000×g for 45 minutes. It was then dissolved in HEPES and dialyzed against 4 liters of HEPES buffer. The precipitate formed on dialysis was removed by centrifugation at 10,000×g for 30 minutes, the supernatant was collected, and the precipitated material was discarded. Extracted proteins was analyzed for protein content using a Spectrophotometer ND-1000.
as §2
The reaction mixture consisted of 50 μl of 100 mM substrate in 50 mM HEPES buffer, pH 7, and 25 μl of the sample protease containing 2 mg/ml of protein was used to test chromogenic activity of the substrate. With 5% of 2-mercaptoethanol as reducing agent, volume was made to 250 μl. Various concentrations of the inhibitor 2 mM; 4 mM; 6 mM; 8 mM; 10 mM were used.
as §3

[4] = Dissolution of gadolinium materials; format: physicochemical
[5] = pH of the applied solution; format: physicochemical; settings: pH of the solution or product as applied to dentine

| SMILES | effect on gelatin-cleaving / collagenolytic activity on zymogram [1] | inhibitory effect on cell surface-extracts (BAPNA hydrolysis) [2] [%] | OD at A405 (p-nitroaniline released) [2] | inhibition of protease activity (BAPNA hydrolysis), cell culture-precipitated proteins [3] [%] | conditions required for dissolution [4] | pH [5] | pH ([5]; listed as Gadolinium nitrate) |
| --- | --- | --- | --- | --- | --- | --- | --- |
| [Gd] [gadolinium] | negative staining bands were absent | – | – | – | – | – | – |
| O.O.O.O.O.O.[Cl-].[Cl-].[Cl-].[Gd+3] [gadolinium chloride, gadolinium chloride hexahydrate (GdCl3.6H2O)] | – | ~54 | ~0.45 | ~70 | – | – | – |
| O.O.O.O.O.O.O.[Ce+3].[Cl-].[Cl-].[Cl-] [cerium chloride, cerium chloride heptahydrate (CeCl3.7H2O)] | – | ~32 | ~0.66 | ~11 | – | – | – |
| O.O.O.O.O.O.[Cl][Sm]([Cl])[Cl] [samarium chloride, samarium chloride hexahydrate, (SmCl3.6H2O)] | – | ~59 | ~0.39 | ~75 | – | – | – |
| O=C([O-])C(=O)[O-].O=C([O-])C(=O)[O-].O=C([O-])C(=O)[O-].[Gd+3].[Gd+3] [Gadolinium oxalate] | – | – | – | – | required very acidic conditions for dissolution | – | – |
| O.O.O.O.O.O.O=[N+]([O-])[O-].O=[N+]([O-])[O-].O=[N+]([O-])[O-].[Gd+3] [gadolinium nitrate, gadolinium nitrate hexahydrate, (Gd(NO3)3.6H2O)] | inhibited the collagenolytic activity | ~56 | ~0.43 | – | – | 4.3 | about 4.3 |
